Earlier results, collected in patent publication EP4748406A1, “MEDICAL ADHESIVE AGENT AND MEDICAL ADHESIVE SHEET” (Nitto Denko Corporation, priority 2023, dated 2025).

SMILES: C=C(C)C(=O)O [MAA, methacrylic acid]
- water solubility at 20°C: 9.7 g/100 mL
